In BindingDB's records for doi:10.1021/jm020112w (Bristol-Myers Squibb, 2002):

These molecules were tested against Dihydroorotate dehydrogenase (Helicobacter pylori) (assay: Inhibition of dihydroorotate dehydrogenase (DHODase) of Helicobacter pylori).
For `COc1ccc(-n2nc(C(=O)NCC(C)C)cc2C(=O)Nc2ccc(C(=O)N3CCCC3)cc2)cc1` [1-(4-Methoxy-phenyl)-1H-pyrazole-3,5-dicarboxylic acid 3-(isobutyl-amide) 5-{[4-(pyrrolidine-1-carbonyl)-phenyl]-amide}], the Ki was 138 nM. Molecule `Cc1ccc(CNC(=O)c2cc(C(=O)Nc3ccccc3)n(-c3ccc(Cl)cc3)n2)cc1` [1-(4-Chloro-phenyl)-1H-pyrazole-3,5-dicarboxylic acid 3-(4-methyl-benzylamide) 5-phenylamide] has a Ki of 32 nM. With `NC(=O)c1ccc(NC(=O)c2cc(C(=O)NCc3ccccc3)nn2-c2ccc(Cl)cc2)cc1` [1-(4-Chloro-phenyl)-1H-pyrazole-3,5-dicarboxylic acid 3-benzylamide 5-[(4-carbamoyl-phenyl)-amide]] the Ki was 6 nM. Work on `O=C(NCc1cccnc1)c1cc(C(=O)Nc2ccc(N3CCCCC3)cc2)n(-c2ccc(Cl)cc2)n1` [1-(4-Chloro-phenyl)-1H-pyrazole-3,5-dicarboxylic acid 5-[(4-piperidin-1-yl-phenyl)-amide] 3-[(pyridin-3-ylmethyl)-amide]] yielded a Ki of 8 nM. `COc1ccc(-n2nc(C(=O)NCc3cccnc3)cc2C(=O)Nc2ccccc2)cc1` [1-(4-Methoxy-phenyl)-1H-pyrazole-3,5-dicarboxylic acid 5-phenylamide 3-[(pyridin-3-ylmethyl)-amide]] was tested, and the Ki was 12 nM. `O=C(NCc1cccnc1)c1cc(C(=O)Nc2ccccc2)n(-c2ccc(Cl)cc2)n1` [1-(4-Chloro-phenyl)-1H-pyrazole-3,5-dicarboxylic acid 5-phenylamide 3-[(pyridin-3-ylmethyl)-amide]] showed a Ki of 4 nM. Work on `O=C(NCc1ccccc1)c1cc(C(=O)Nc2ccccc2)n(-c2ccc(Cl)cc2)n1` [X1-(4-Chloro-phenyl)-1H-pyrazole-3,5-dicarboxylic acid 3-benzylamide 5-phenylamide] yielded a Ki of 4 nM. `COc1ccc(-n2nc(C(=O)NC(c3ccccc3)c3ccccc3)cc2C(=O)NCc2ccccc2)cc1` [1-(4-Methoxy-phenyl)-1H-pyrazole-3,5-dicarboxylic acid 3-benzhydryl-amide 5-benzylamide] gave a Ki of 2400 nM. Molecule `COc1ccc(-n2nc(C(=O)NCc3ccccc3)cc2C(=O)Nc2ccc(C(=O)N3CCCC3)cc2)cc1` [1-(4-Methoxy-phenyl)-1H-pyrazole-3,5-dicarboxylic acid 3-benzylamide 5-{[4-(pyrrolidine-1-carbonyl)-phenyl]-amide}] has a Ki of 26 nM. For `CC(C)CNC(=O)c1cc(C(=O)NCc2ccccc2)nn1-c1ccc(Cl)cc1` [1-(4-Chloro-phenyl)-1H-pyrazole-3,5-dicarboxylic acid 3-benzylamide 5-(isobutyl-amide)], the Ki was 91 nM. Work on `COc1ccc(-n2nc(C(=O)NCC3CCCO3)cc2C(=O)Nc2ccc(C(=O)N3CCCC3)cc2)cc1` (stereo unspecified) [1-(4-Methoxy-phenyl)-1H-pyrazole-3,5-dicarboxylic acid 5-{[4-(pyrrolidine-1-carbonyl)-phenyl]-amide} 3-[(tetrahydro-furan-2-ylmethyl)-amide]] yielded a Ki of 331 nM.
